Assay results published in US9456589B2, “Elasmobranch-repelling compounds and methods of use” (priority 2005, dated 2016).
“And” between values parts separate entries of the source, which are not always exact repeats. Equal values may be shown once.

Key:
tiger sharks = experiment: Tonic immobility, Hd Syringe Assay; format: in vivo, G. cuvieri; conditions: 1 ml
Description: (§1) One bioassay used to observe and measure flight response is the tonic immobility test. Tonic immobility is a state of paralysis that typically occurs when a shark is subject to inversion of its body along the longitudinal axis. This state is called “tonic,” and the shark can remain in this state for up to 15 minutes thereby allowing researchers to observe effects of chemical repellents. The “tonic” state of the shark is first established by releasing seawater in proximity to the “tonic” shark with the same delivery instrument and at the same distance as a “test” repellent compound will be released. Some controls are released with a high flow rate (30 mL/sec) in order to establish that sharks are not awakened by a jet of fluid over their noses. Once behavioral controls are established, a compound or composition that may have a repelling effect is delivered to the shark. If the compound or composition engenders a flight response, the shark will awaken from the tonic state and rapidly attempt to flee the delivered repellent. Using this tonic immobility bioassay researches can quantify the strength of a repellent effect.
Lemon, nurse, blacktip and tiger sharks were placed in tonic immobility by inverting the shark's body along its longitudinal axis. […]

[1] = tested on: captive Cobia and Yellowfin Tuna; experiment: Feeding behavior of captive fish in the presence of aldehydes; format: in vivo
Text: Similarly, teleost reef fish, such as Triggerfish and Snappers, have been observed feeding and swimming in a cloud of shark-repelling aldehydes. This behavior is presumed to result from the lack of aldehyde-receptors in the fishes' gustatory system.

nurse sharks = experiment: Tonic immobility, Bite Assay; format: in vivo, C. cirratum
Description: One bioassay used to observe and measure flight response is the tonic immobility test. Tonic immobility is a state of paralysis that typically occurs when a shark is subject to inversion of its body along the longitudinal axis. This state is called “tonic,” and the shark can remain in this state for up to 15 minutes thereby allowing researchers to observe effects of chemical repellents. The “tonic” state of the shark is first established by releasing seawater in proximity to the “tonic” shark with the same delivery instrument and at the same distance as a “test” repellent compound will be released. Some controls are released with a high flow rate (30 mL/sec) in order to establish that sharks are not awakened by a jet of fluid over their noses. Once behavioral controls are established, a compound or composition that may have a repelling effect is delivered to the shark. […] Using this tonic immobility bioassay researches can quantify the strength of a repellent effect. […]
In Bite Assays, a dose of typically less than 5 mL of 3-methylbutanal was presented directly into the shark's mouth using a pipette. […] Because the delivery was directly into the shark's mouth and responses were generally observed immediately upon delivery, time to response was not recorded.

blue sharks = experiment: Tonic immobility, syringe delivery to the mouth of blue sharks; format: in vivo, Prionace glauca; conditions: two blue sharks, two assays each, 20 mL or less
Text: The sharks had been captured on rod and reel and were held in tonic immobility along a boat.

sharks (species pooled) = experiment: Tonic immobility, total of delivery methods not including Micropipette assays; format: in vivo
Description: as §1
Table 1, which summarizes the data in Tables 14 and 15, evidences the gustatory repellent characteristics of methylbutanals. In 35 of 36 assays (combining columns “Y” and “R” under the column labeled “Total (Not including Micropipette Assays)” to arrive at a 97% effectiveness rate), including assays on lemon, nurse, tiger and blacktip sharks, the gustatory repellent activity of 3-methylbutanal was established. In 81% of assays, tonic immobility was fully terminated. […] In only a single assay did a shark not respond to treatment with 3-methylbutanal.

[2] = tested on: sharks (lemon, nurse, blacktip, tiger, blacknose pooled); experiment: Tonic immobility, Syringe 3/5/10 Assay, summary over species; format: in vivo
Description: as §1
In the tonic immobility studies disclosed herein, several different methods were employed for delivery of repelling compounds. A first method for delivery of chemical repellent in tonic immobility studies employed a “Syringe 3/5/10 Assay” method. The “Syringe 3/5/10 Assay” method is so named because a test repellent is delivered to a shark from a distance of about “3” inches with a bolus of about “5” mL with a response to the test repellent considered positive if the shark reacts with a change in behavior within less than about “10” seconds from the time of delivery.
The “3/5/10 Syringe Assay” as employed herein delivered a dose of 5-6 mL of a test chemical repellent from a syringe fixed with a needle having a gauge of about 22 from a distance at least 3 inches in front of a shark. Because the test chemical repellent was delivered at a distance from the shark's nares and mouth, a cloud of test chemical repellent was dispersed over the shark within the water column. The dispersed test repellent was subject to water current direction, dispersion and dilution. As a result, a flight response within 10 seconds was considered a positive repellency response. […] Time from delivery to response is related to the size of the bolus delivered from the syringe, distance of the shark from the syringe and water current.
In Syringe 3/5/10 Assays, 5-6 mL of 3-methylbutanal was delivered at least 3 inches in front of the shark's mouth. A cloud of the repellent dispersed over the shark within the water column. […] As noted above, because the dispersion of the chemical repellent upon delivery is affected by volume of repellent, water current, and other factors, the time between delivery and response was not correlatable with the potency of the repellent.

[3] = species and delivery methods pooled

SMILES: CC(C)CC=O [3-methylbutanal]
- Response (time from delivery to response) (tiger sharks): 1 s
- TTI (termination of tonic immobility) (tiger sharks): Y
- feeding behavior of fish in the presence of the aldehyde [1]: slightly increased
- Bite Y (termination of tonic immobility), trials of trials (nurse sharks): each resulting in termination of tonic immobility and 2/2
- response to direct delivery to the mouth (blue sharks): behavioral response (classic mouth-agape response)
- assays with termination of tonic immobility or behavior change (Y and R combined), not including Micropipette assays (sharks (species pooled); Hd Syringe, Syringe 3/5/10 and Bite, lemon, nurse, tiger, blacktip): 40 of 41 and 35 of 36
- effectiveness rate (Y and R combined), not including Micropipette assays (sharks (species pooled); lemon, nurse, tiger, blacktip): 97%
- Total (Not including Micropipette assays / Effective Delivery Methods) N, trials of trials (sharks (species pooled); [3]): single and 1/36
- Total (Not including Micropipette assays / Effective Delivery Methods) R, trials of trials (sharks (species pooled); [3]): 6/36
- Total (Not including Micropipette assays / Effective Delivery Methods) Y, trials of trials (sharks (species pooled); [3]): 29/36
- Total N, percent of trials (sharks (species pooled); [3]): (3%)
- Syringe 3/5/10 Y (termination of tonic immobility), trials of trials [2]: 7/7
- Syringe 3/5/10 Y, percent of trials [2]: 100%
